# Data: patent publication US20230096897A1, “Lymphocyte Population and Methods for Producing Same” (AVM Biotechnology, LLC, priority 2020, published 2023)
# Columns and labels:
# [1] = test system: human CD3high, CD45dim, CD56+ cells; experiment: Human AVM-NKT cells in huNOG EXL mice; type: in vivo, mouse; details: oral HED 18-45 mg/kg; 24-48 hours later
# Method: huNOG EXL from Taconic have an average of 54% of CD45 cells positive for human CD45. Six huNOG EXL humanized immune system mice from 3 donors (n=2 per donor) are orally dosed with HED 18-45 mg/kg DSP. 24-48 hours later human CD3high, and/or human CD45dim, and/or human CD56+ cells can be observed to be about 0.2-3% of total splenocytes by flow cytometry.
# [2] = test system: human CD3high, CD45dim, CD56+ cells; experiment: Human AVM-NKT cells in BRGSF humanized mice; type: in vivo, mouse; details: oral HED 18-45 mg/kg; 24-48 hours later
# Method: BRGSF humanized mice on a Balb/c background from Genoway generated by transplanting human umbilical cord blood CD34+ stem cells into irradiated mice that lack mouse B and T lymphocytes and NK cells but have a functional mouse complement system are orally dosed with HED 18-45 mg/kg DSP. 24-48 hours later human CD3high, and/or human CD45dim, and/or human CD56+ cells can be observed to be about 0.2-3% of total splenocytes by flow cytometry.
# AVM-NKT cells = experiment: Flow cytometry of osteoarthritis patients treated with dexamethasone; type: in vivo, human; details: 3-6 mg/kg; 48 hours post treatment; one of four patients
# [3] = test system: CD3high, CD45dim, CD49b+ cells; experiment: Venetoclax pre-treatment before high dose DSP in female NOD mice; type: in vivo, mouse; details: 48 hours after HED 30 mg/kg DSP alone
# Method: Female NOD mice of 10 weeks of age are treated with 12.5 mg/kg up to 50 mg/kg venetoclax 6-18 hours before oral gavage of a HED 30 mg/kg DSP dose. […] CD3high, CD45dim, CD49b+ cells are reduced from—70 cells/microliter with DSP alone to—40 cells/microliter with 12.5 mg/kg venetoclax pretreatment, to—20 cells/microliter with 25 mg/kg venetoclax pretreatment, to—15 cells/microliter with 50 mg/kg venetoclax pretreatment. Venetoclax is a Bcl-2 inhibitor.
# [4] = test system: human CD3high, CD45dim, CD56+ cells; experiment: Human AVM-NKT cells in HuCD34-NCG mice; type: in vivo, mouse; details: oral HED 18-45 mg/kg; 24-48 hours later
# From the text: The HuCD34-NCG mouse from Charles River is a study-ready mouse model with a human-like immune system, created by adoptive transfer of CD34+ stem cells. HuCD34-NCG mice are an ideal in vivo platform to evaluate the effectiveness of compounds modulating the human immune system. The lack, or late onset, of graft-versus-host disease (GvHD) in humanized mice make them ideal for long-term studies.
# NCG mice are humanized by adoptive transfer using human umbilical cord blood-derived CD34+ stem cells, following myeloablation treatment. NCG mice from 4 donors (n=2 per donor) are orally dosed with HED 18-45 mg/kg DSP. 24-48 hours later human CD3high, and/or human CD45dim, and/or human CD56+ cells can be observed to be about 0.2-3% of total splenocytes by flow cytometry.
substance,measurement,setting,value
dexamethasone sodium phosphate [DSP],"human CD3high, and/or CD45dim, and/or CD56+ cells as share of total splenocytes",[1],0.2-3%
same,"human CD3high, and/or CD45dim, and/or CD56+ cells as share of total splenocytes",[2],0.2-3%
same,"Cells corresponding to AVM-NKT cells (CD45 dim, CD56 very bright) in blood",AVM-NKT cells,identified
same,"CD3high, CD45dim, CD49b+ cells mobilized into the blood",[3],70 cells/microliter
same,"human CD3high, and/or CD45dim, and/or CD56+ cells as share of total splenocytes",[4],0.2-3%
